Measured values taken from patent publication US8637562B2, “Methods for detecting sulfhydryl-containing compounds in a biological test sample” (Theravance, Inc., priority 2008, dated 2014).

Assays:
Format in all cases: in vitro ADME
[1] = Hydrolysis of the methyl acrylate derivative in dog plasma (monomer detection method, LC-MS/MS)
Protocol: (§1) Subsequent studies were conducted using dog and monkey plasma. Accordingly, similar calibration standards were prepared in dog and monkey plasma.
(§2) Plasma samples were extracted by protein precipitation. In general, 200 μL of MeCN containing a specified concentration of the internal standard was added into a 50 μL aliquot of each plasma calibration standard, QC, and in vivo plasma sample. The plasma samples were then vortexed and centrifuged. 100 μL of extract was then taken from each plasma sample and reconstituted into 200 μL of 5% MeCN/water containing 0.2% formic acid.
(§3) Multiple reaction monitoring (MRM) is the standard technique for quantitative LC-MS/MS experiments. Four specific MRM transitions for compound I-a, compound III-a, compound IV-a, and the internal standard were simultaneously monitored by LC-MS/MS. 4′-(5-{[(S)-2-(2-Carboxyethylsulfanyl)-4-methylpentanoyl amino]methyl}-2-ethoxy-4-ethylimidazol-1-ylmethyl)-3′-fluorobiphenyl-2-carboxylic acid (compound IV-a):
(§4) [drawing 27] is the hydrolyzed form of compound III-a. […] The relevant derivative concentrations of in vivo samples were determined from the calibration curve. The monomer concentration (in ng/mL units) was calculated from the concentration of the relevant derivative multiplied by the correction factor of the ratio of the molecular weight of the monomer/molecular weight of the derivative.

[2] = Hydrolysis of the methyl acrylate derivative in monkey plasma (monomer detection method, LC-MS/MS)
Protocol: as §1, §2, §3, §4

[3] = Hydrolysis of the methyl acrylate derivative in rat plasma (monomer detection method, LC-MS/MS); conditions: rat plasma containing 1% (v/v) methyl acrylate
Protocol: Rat blood (0.3 mL) was placed into EDTA microtainer tubes containing methyl acrylate (3 μL) (1:100 volume ratio of methyl acrylate:blood). Blood and methyl acrylate were mixed by gentle rolling and tapping of the tube. After 30 minutes of reaction at room temperature, the blood samples were placed on ice until centrifugation. The blood was processed to obtain plasma by centrifugation for 4 minutes at approximately 12,000 rpm. 0.15 mL of plasma was then transferred to cluster tubes on dry ice.
[drawing 26] into a specified volume of blank rat plasma containing 1% (v/v) of methyl acrylate. Compound III-a is the methyl acrylate derivative of compound I-a. In general, the calibration curve range was 0.1 to 1000 ng/mL of compound III-a in rat plasma. […]
Multiple reaction monitoring (MRM) is the standard technique for quantitative LC-MS/MS experiments. Four specific MRM transitions for compound I-a, compound III-a, compound IV-a, and the internal standard were simultaneously monitored by LC-MS/MS. […]
as §4

hydrolysis of compound III-a to compound IV-a in plasma [1]: not | hydrolysis of compound III-a to compound IV-a in plasma [2]: not | hydrolysis of compound III-a to compound IV-a in plasma [3]: completely hydrolyzes to compound IV-a
Compound: CCOc1nc(CC)c(CNC(=O)[C@H](CC(C)C)SCCC(=O)OC)n1Cc1ccc(-c2ccccc2C(=O)O)cc1F [Compound III-a, 4′-(2-ethoxy-4-ethyl-5-{[(S)-2-(2-methoxycarbonylethylsulfanyl)-4-methylpentanoylamino]methyl}imidazol-1-ylmethyl)-3′-fluorobiphenyl-2-carboxylic acid]
